{"source": "patent US12678428B2", "about": "“Synergistic composition for inhibiting vascular calcification” (Celagenex Research (India) Pvt. Ltd., priority 2021, dated 2026)", "key": {"[1]": {"experiment": "In vitro cytotoxicity by MTT assay in HaCaT cells", "type": "cell-based", "settings": "human, HaCaT keratinocyte cells", "experimental": "The in vitro cytotoxicity was performed on Human Keratinocytes (HaCaT) cell line to find the non-toxic concentrations of the test substances by MTT assay and evaluate their cytoprotective activity against advanced glycation end product (AGE) induced oxidative stress in Human Keratinocytes.\nAbout 10 mg of the test substance was dissolved separately with 1 mL DMEM-HG supplemented with 2% inactivated FBS to obtain a stock solution of 10 mg/mL concentration and sterilized by 0.22μ syringe filtration. Dilute the stock to desired concentrations for carrying out further studies.\nHaCaT (Human Keratinocytes cells) was procured from AddexBio, U.S. Stock cells were cultured in DMEM-HG supplemented with 10% inactivated Fetal Bovine Serum (FBS), penicillin (100 IU/mL), streptomycin (100 μg/mL) and amphotericin B (5 μg/mL) in humidified atmosphere of 5% CO2 at 37° C. until confluent. The cells were dissociated with TPVG solution (0.2% trypsin, 0.02% EDTA, 0.05% glucose in PBS). The stock cultures were grown in 25 cm^2 culture flasks and all experiments were carried out in 96 microtitre plates (Tarsons India Pvt. Ltd., Kolkata, India).\nThe cell culture monolayer was trypsinized and the cell count was adjusted to 1.0×10^5 cells/mL using DMEM-HG containing 10% FBS. To each well of the 96 well microtitre plate, 0.1 mL of the diluted cell suspension was added. After 24 hours, when a partial monolayer was formed, the supernatant was flicked off, the monolayer was washed once with PBS and 100 μL of different concentrations of test substance was added. The plate was then incubated at 37° C. for 24 hours in a 5% CO2 atmosphere, and microscopic examination was carried out and observations were noted after 24 h time.\nAfter 24 hours of incubation, the drug solution in the wells was discarded and 50 μL of MTT in DPBS was added to each well. The plate was gently shaken and incubated for 3 hours at 37° C. in a 5% CO2 atmosphere. The supernatant was removed and 100 μL of DMSO was added and the plate was gently shaken to solubilize the formed formazan. The absorbance was measured using a micro plate reader at a wavelength of 570 nm. The percentage growth inhibition was calculated using the standard formula. The concentration of test substance, needed to inhibit the growth of the cell by 50% i.e., CTC50 values were generated from the dose-response curves."}, "[2]": {"system": "Human Keratinocytes cell line (HaCaT)", "experiment": "Cytoprotective activity against AGE (methylglyoxal) induced oxidative stress, tryphan blue dye exclusion assay", "type": "cell-based", "settings": "HaCaT cells treated with Methylglyoxal and test substance, 24 h; Metformin 5 mg; Test I 3.5 mg; Test II 0.5 mg; Test III 5 mg + 0.02 mg; Test IV 0.2 mg + 0.2 mg; Test V 3.5 mg + 0.5 mg", "experimental": "(§1) The purpose of this study is to evaluate cytoprotective activity of test substance against advanced glycation end product (AGE) induced oxidative stress in Human Keratinocytes cell line (HaCaT). About 10 mg of the test substance was dissolved separately with 1 mL DMEM-HG supplemented with 2% inactivated FBS to obtain a stock solution of 10 mg/mL concentration and sterilized by 0.22μ syringe filtration. Dilute the stock to desired concentrations for carrying out further studies. HaCaT (Human Keratinocytes cells) was procured from AddexBio, U.S. Stock cells were cultured in DMEM-HG supplemented with 10% inactivated Fetal Bovine Serum (FBS), penicillin (100 IU/mL), streptomycin (100 μg/mL) and amphotericin B (5 μg/mL) in humidified atmosphere of 5% CO2 at 37° C. until confluent. The cells were dissociated with TPVG solution (0.2% trypsin, 0.02% EDTA, 0.05% glucose in PBS). The stock cultures were grown in 25 cm^2 culture flasks and all experiments were carried out in 96 microtitre plates (Tarsons India Pvt. Ltd., Kolkata, India). [table] The monolayer cell culture was trypsinized and the cell count was adjusted to 1.5×10^5 cells/mL using DMEM-HG containing 10% FBS. To each well of the 6 well plates, 2 mL of the diluted cell suspension was added. After 24 hours, when a partial monolayer was formed, supernatant was removed and washed the monolayer once with PBS and 1 mL of different test concentrations and combinations of test substances were added. The plate was then incubated at 37° C. for 24 h in a 5% CO2 atmosphere, and microscopic examination was carried out and observations were noted after 24 hours time. After 24 hours, the media was discarded and cells were trypsinized and pelleted by centrifugation, suspended in 1 mL of fresh media and performed dye exclusion test, i.e., mixed equal volume of cells suspended media and Tryphan blue. Viable and non-viable cells were counted using haemocytometer and values were recorded, and then percentage cell viability was calculated."}, "[3]": {"experiment": "Cytoprotective activity against AGE (methylglyoxal) induced oxidative stress, tryphan blue dye exclusion assay", "type": "cell-based, Human", "settings": "human, HaCaT keratinocyte cells, HaCaT cells treated only with Methylglyoxal 300 μM (positive control)", "experimental": "as §1"}}}
{"compound": "Cc1ncc(CO)c(CN)c1O", "note": "[2-methyl-4-aminomethyl-5-hydroxymethyl-3-Pyridinol]", "values": [{"measurement": "cytotoxicity at 24 h, 0.125 mg/mL", "setting": "[1]; test concentration 0.125 mg/mL", "result": 4.55, "unit": "%"}, {"measurement": "cytotoxicity at 24 h, 0.25 mg/mL", "setting": "[1]; test concentration 0.25 mg/mL", "result": 5.68, "unit": "%"}, {"measurement": "cytotoxicity at 24 h, 0.5 mg/mL", "setting": "[1]; test concentration 0.5 mg/mL", "result": 25.6, "unit": "%"}, {"measurement": "cytotoxicity at 24 h, 1 mg/mL", "setting": "[1]; test concentration 1 mg/mL", "result": 63.4, "unit": "%"}, {"measurement": "cytotoxicity at 24 h, 2 mg/mL", "setting": "[1]; test concentration 2 mg/mL", "result": 67, "unit": "%"}, {"measurement": "cytotoxicity at 24 h, 3 mg/mL", "setting": "[1]; test concentration 3 mg/mL", "result": 67.5, "unit": "%"}, {"measurement": "cytotoxicity at 24 h, 4 mg/mL", "setting": "[1]; test concentration 4 mg/mL", "result": 75.8, "unit": "%"}, {"measurement": "cytotoxicity at 24 h, 5 mg/mL", "setting": "[1]; test concentration 5 mg/mL", "result": 76, "unit": "%"}, {"measurement": "% Viability", "setting": "[2]", "result": 41.23, "unit": "%"}]}
{"compound": "CN(C)C(=N)N=C(N)N", "note": "[Metformin, reference compound]", "values": [{"measurement": "% Viability", "setting": "[2]", "result": 70.79, "unit": "%"}]}
{"compound": "CC(=O)C=O", "note": "[Methylglyoxal, reference compound]", "values": [{"measurement": "viability at 24 h, 300 μM", "setting": "[3]", "result": "~38.8", "unit": "%"}]}
{"compound": "CC(=O)NCCS(=O)(=O)O.[Mg]", "note": "[Test I, Magnesium 2-acetylamino ethane sulfonic acid]", "values": [{"measurement": "% Viability", "setting": "[2]", "result": 42.39, "unit": "%"}]}
